Patent US5336673A, “3-substituted cephem compounds” (priority 1990, dated 1994)
In brackets after ≈: the same amount, converted by molar mass.

Tests used:
[1] = test system: enterobacteria; conditions: against the enterobacteria; cited from earlier work
[2] = target: T1, β-lactamase from Citrobacter freundii (Citrobacter freundii, UniProt P05193); assay: Stability against β-lactamase, relative hydrolysis; format: biochemical; conditions: Citrobacter freundii enzyme; 100 μM; relative(percentage), Cephaloridine taken as 100; OD at 260 nm
T1 construct: directly isolated from Enterobacter cloacae P99, E. coli TEM and Citrobacter freundii; endogenous in cells
Method: (§1) In order to establish the usefulness in clinical applications of the compounds provided by the invention, the compound of Example 18 was tested for stability against the β-lactamase and for antibacterial activity on systemic infection model.
(§2) First, the stability against the β-lactamase was tested by determining the relative(percentage) hydrolysis of the compound of Example 18, relative to that of Cephaloridine, taking the absolute rate of Cephaloridine as 100.
(§3) The β-lactamases employed in the test were directly isolated from Enterobacter cloacae P99, E. coli TEM and Citrobacter freundii, and the antibiotics for comparison were Cephaloridine, Cephradine, Cefoperazone and Cefotaxime.
(§4) Cephaloridine, other known antibiotics and the compound of Example 18 were reacted with each of the enzymes isolated from the strains and the OD were determined at 260 nm, λmax of Cephaloridine. The relative hydrolysis of various compounds were calculated relative to the OD of Cephaloridine.

[3] = target: T2, β-lactamase from E. coli TEM (Escherichia coli, UniProt P62593); assay: Stability against β-lactamase, relative hydrolysis; format: biochemical; conditions: E. coli TEM enzyme; 100 μM; relative(percentage), Cephaloridine taken as 100; OD at 260 nm
T2 construct: directly isolated from Enterobacter cloacae P99, E. coli TEM and Citrobacter freundii; endogenous in cells; host or cells: E. coli TEM (plasmid-carried enzyme of the strain)
Method: as §1, §2, §3, §4

[4] = test system: Salmonella typhimurium; assay: Antibacterial activity, MIC by Agar dilution method, standard test strain 16; format: cell-based; conditions: Salmonella enterica, 10^7 CFU/ml, 37° C., 18 hours
Method: (§5) The antibacterial activity was determined by an Agar dilution method as described below.
(§6) That is, the two-fold serial dilutions of the antibacterial compounds (1000 μg compound/ml) were prepared and dispersed in Muller Hinton Agar in a petri dish to a concentration of 100~0.002 μg/ml. The culture broths of standard test strains were inoculated on the medium to a concentration 10^7 CFU/ml, and incubated at 37° C. for 18 hours. The concentration of compounds(I) at which the strains were not grown was regarded as minimum inhibition concentration (MIC).
(§7) The results of antibacterial activity test of the representative examples of the compound (I) against 20 standard test strains shown in terms of MIC were indicated in Table 1.
16. Salmonella typhimurium

[5] = target: T3, β-lactamase from Enterobacter cloacae P99 (Enterobacter cloacae, UniProt P05364); assay: Stability against β-lactamase, relative hydrolysis; format: biochemical; conditions: Enterobacter cloacae P99 enzyme; 100 μM; relative(percentage), Cephaloridine taken as 100; OD at 260 nm
T3 construct: directly isolated from Enterobacter cloacae P99, E. coli TEM and Citrobacter freundii; endogenous in cells; host or cells: Enterobacter cloacae P99
Method: as §3
The relative hydrolysis of various compounds were calculated relative to the OD of Cephaloridine.

[6] = test system: Escherichia coli O 55; assay: Antibacterial activity, MIC by Agar dilution method, standard test strain 7; format: cell-based; conditions: O55; Escherichia coli O 55; 10^7 CFU/ml, 37° C., 18 hours; read-out: MIC
Method: as §5, §6, §7

[7] = test system: Klebsiella oxytoca 1082E; assay: Antibacterial activity, MIC by Agar dilution method, standard test strain 17; format: cell-based; conditions: 10^7 CFU/ml, 37° C., 18 hours
Method: as §5, §6, §7

[8] = test system: Enterobacter cloacae P99; assay: Antibacterial activity, MIC by Agar dilution method, standard test strain 19; format: cell-based; conditions: P99, 18 h
Method: as §5, §6, §7
19. Enterobacter cloacae P99

[9] = test system: Staphylococcus aureus 503; assay: Antibacterial activity, MIC by Agar dilution method, standard test strain 6; format: cell-based; conditions: 10^7 CFU/ml, 37° C., 18 hours
Method: as §5, §6, §7
6. Staphylococcus aureus 503

[10] = test system: Pseudomonas aeruginosa 9027; assay: Antibacterial activity, MIC by Agar dilution method, standard test strain 12; format: cell-based; conditions: 10^7 CFU/ml, 37° C., 18 hours
Method: as §5, §6, §7
12. Pseudomonas aeruginosa 9027

[11] = test system: Streptococcus pyogenes A 308; assay: Antibacterial activity, MIC by Agar dilution method, standard test strain 1; format: cell-based; conditions: A308, 10^7 CFU/ml, 37° C., 18 hours
Method: as §5, §6, §7
1. Streptococcus pyogenes A 308

[12] = test system: Escherichia coli DC 2; assay: Antibacterial activity, MIC by Agar dilution method, standard test strain 9; format: cell-based; conditions: Escherichia coli, DC2, 18 h
Method: as §5, §6, §7

[13] = test system: Enterobacter cloacae 1321E; assay: Antibacterial activity, MIC by Agar dilution method, standard test strain 20; format: cell-based; conditions: Enterobacter cloacae 1321E; 10^7 CFU/ml, 37° C., 18 hours; read-out: MIC
Method: as §5, §6, §7
20. Enterobacter cloacae 1321E

[14] = test system: Pseudomonas aeruginosa 1771; assay: Antibacterial activity, MIC by Agar dilution method, standard test strain 14; format: cell-based; conditions: 10^7 CFU/ml, 37° C., 18 hours
Method: as §5, §6, §7
14. Pseudomonas aeruginosa 1771

[15] = test system: Escherichia coli 1507E; assay: Antibacterial activity, MIC by Agar dilution method, standard test strain 11; format: cell-based; conditions: Escherichia coli 1507E; 10^7 CFU/ml, 37° C., 18 hours; read-out: MIC
Method: as §5, §6, §7

[16] = test system: Escherichia coli DC O; assay: Antibacterial activity, MIC by Agar dilution method, standard test strain 8; format: cell-based; conditions: Escherichia coli DC O; 10^7 CFU/ml, 37° C., 18 hours; read-out: MIC
Method: as §5, §6, §7

[17] = test system: Streptococcus faecium MD 86; assay: Antibacterial activity, MIC by Agar dilution method, standard test strain 3; format: cell-based; conditions: Enterococcus faecium, MD86, 10^7 CFU/ml, 37° C., 18 hours
Method: as §5, §6, §7
3. Streptococcus faecium MD 86

[18] = test system: Escherichia coli TEM; assay: Antibacterial activity, MIC by Agar dilution method, standard test strain 10; format: cell-based; conditions: Escherichia coli TEM; 10^7 CFU/ml, 37° C., 18 hours; read-out: MIC
Method: as §5, §6, §7

[19] = test system: Streptococcus pyogenes A 77; assay: Antibacterial activity, MIC by Agar dilution method, standard test strain 2; format: cell-based; conditions: A77, 10^7 CFU/ml, 37° C., 18 hours
Method: as §5, §6, §7
2. Streptococcus pyogenes A 77

[20] = test system: Staphyloccus aureus 285; assay: Antibacterial activity, MIC by Agar dilution method, standard test strain 5; format: cell-based; conditions: 10^7 CFU/ml, 37° C., 18 hours
Method: as §5, §6, §7
5. Staphyloccus aureus 285

[21] = test system: Staphylococcus aureus SG 511; assay: Antibacterial activity, MIC by Agar dilution method, standard test strain 4; format: cell-based; conditions: SG511, 10^7 CFU/ml, 37° C., 18 hours
Method: as §5, §6, §7
4. Staphylococcus aureus SG 511

[22] = test system: Klebsiella aerogenes 1522E; assay: Antibacterial activity, MIC by Agar dilution method, standard test strain 18; format: cell-based; conditions: Klebsiella aerogenes 1522E; 10^7 CFU/ml, 37° C., 18 hours; read-out: MIC
Method: as §5, §6, §7
18. Klebsiella aerogenes 1522E

[23] = test system: Pseudomonas aeruginosa 1771M; assay: Antibacterial activity, MIC by Agar dilution method, standard test strain 15; format: cell-based; conditions: 18 h
Method: as §5, §6, §7
15. Pseudomonas aeruginosa 1771M

[24] = test system: Pseudomonas aeruginosa 1592E; assay: Antibacterial activity, MIC by Agar dilution method, standard test strain 13; format: cell-based; conditions: 10^7 CFU/ml, 37° C., 18 hours
Method: as §5, §6, §7
13. Pseudomonas aeruginosa 1592E

[25] = test system: Pseudomonas; conditions: against Pseudomonas, compared with other known cephalosporins; cited from earlier work
[26] = test system: Staphylococcus; conditions: against Staphylococcus; cited from earlier work

T3 sequence (P05364 21-381): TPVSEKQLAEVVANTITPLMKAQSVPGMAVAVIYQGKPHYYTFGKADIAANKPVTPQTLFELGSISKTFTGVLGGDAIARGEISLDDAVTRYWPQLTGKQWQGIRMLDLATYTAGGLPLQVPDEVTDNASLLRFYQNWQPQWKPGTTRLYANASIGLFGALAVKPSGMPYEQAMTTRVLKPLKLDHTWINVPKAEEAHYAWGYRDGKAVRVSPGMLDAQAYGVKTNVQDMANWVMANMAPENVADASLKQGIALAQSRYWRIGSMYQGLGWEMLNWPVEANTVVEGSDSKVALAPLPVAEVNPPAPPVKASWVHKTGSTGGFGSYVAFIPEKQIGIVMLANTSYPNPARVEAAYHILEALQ
T1 sequence (P05193 21-381): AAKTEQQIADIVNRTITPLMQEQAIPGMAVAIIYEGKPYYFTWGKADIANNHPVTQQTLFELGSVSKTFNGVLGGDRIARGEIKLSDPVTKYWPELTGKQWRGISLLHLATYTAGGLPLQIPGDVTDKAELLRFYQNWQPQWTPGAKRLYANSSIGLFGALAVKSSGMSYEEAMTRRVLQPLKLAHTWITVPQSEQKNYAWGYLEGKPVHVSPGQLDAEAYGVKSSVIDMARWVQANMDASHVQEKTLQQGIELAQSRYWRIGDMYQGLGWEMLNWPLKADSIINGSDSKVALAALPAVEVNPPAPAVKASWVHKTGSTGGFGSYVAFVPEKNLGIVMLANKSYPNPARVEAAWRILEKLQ
T2 sequence (P62593 24-286 limits assumed): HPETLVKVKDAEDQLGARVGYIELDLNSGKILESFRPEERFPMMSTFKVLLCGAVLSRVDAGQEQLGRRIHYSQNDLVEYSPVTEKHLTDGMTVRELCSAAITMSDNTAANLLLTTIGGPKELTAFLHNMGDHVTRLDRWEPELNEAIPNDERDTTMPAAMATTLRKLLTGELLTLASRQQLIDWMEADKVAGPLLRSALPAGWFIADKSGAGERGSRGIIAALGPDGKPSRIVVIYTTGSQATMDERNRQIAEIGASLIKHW

For `CO/N=C(\C(=O)N[C@@H]1C(=O)N2C(C(=O)O)=C(CSc3nnnn3C)CS[C@H]12)c1csc(N)n1` [Cefmenoxime], the “antibacterial activity (in words)” value [1] is given as “strong antibacterial activities”.

For `CCN1CCN(C(=O)N[C@@H](C(=O)N[C@@H]2C(=O)N3C(C(=O)O)=C(CSc4nnnn4C)CS[C@H]23)c2ccc(O)cc2)C(=O)C1=O` [Cefoperazone], the “Relative hydrolysis by β-lactamase” value [2] was 1.2 and the “Relative hydrolysis by β-lactamase” value [3] was 38.6.

For `CO/N=C(\C(=O)N[C@@H]1C(=O)N2C(C(=O)O)=C(COC(C)=O)CS[C@H]12)c1csc(N)n1` [Cefotaxime, reference compound], the MIC [4] was 0.025 mg/L (≈ 0.0549 µM), the “Relative hydrolysis by β-lactamase” value [5] was 0.0 and the MIC [6] was 0.007 mg/L (≈ 0.0154 µM). For the same compound, the MIC [7] was 0.781 mg/L (≈ 1.71 µM), the MIC [8] was 100 mg/L (≈ 220 µM) and the MIC [9] was 0.781 mg/L (≈ 1.71 µM). For the same compound, the MIC [10] was 12.5 mg/L (≈ 27.4 µM), the MIC [11] was 0.007 mg/L (≈ 0.0154 µM) and the MIC [12] was 0.013 mg/L (≈ 0.0285 µM). The MIC [13] was 0.013 mg/L (≈ 0.0285 µM), the MIC [14] was 6.25 mg/L (≈ 13.7 µM) and the MIC [15] was 0.025 mg/L (≈ 0.0549 µM). For the same compound, the MIC [16] was 0.025 mg/L (≈ 0.0549 µM), the “antibacterial activity (in words)” value [1] was “strong antibacterial activities” and the “Relative hydrolysis by β-lactamase” value [2] was 0.6. The “Relative hydrolysis by β-lactamase” value [3] was 0.6, the MIC [17] was 100 mg/L (≈ 220 µM) and the MIC [18] was 0.025 mg/L (≈ 0.0549 µM). It also gave an MIC [19] of 0.004 mg/L (≈ 0.00878 µM), an MIC [20] of 1.56 mg/L (≈ 3.43 µM) and an MIC [21] of 1.56 mg/L (≈ 3.43 µM). The MIC [22] was 0.013 mg/L (≈ 0.0285 µM), the MIC [23] was 0.098 mg/L (≈ 0.215 µM) and the MIC [24] was 12.5 mg/L (≈ 27.4 µM).

For `CC(C)(O/N=C(\C(=O)N[C@@H]1C(=O)N2C(C(=O)[O-])=C(C[n+]3ccccc3)CS[C@H]12)c1csc(N)n1)C(=O)O` [Ceftazidime], the “antibacterial activity (in words)” value [25] is given as “relatively stronger”, the “antibacterial activity (in words)” value [1] is given as “strong antibacterial activities” and the “antibacterial activity (in words)” value [26] is given as “poor antibacterial activity”.

In the case of `CO/N=C(\C(=O)N[C@@H]1C(=O)N2C(C(=O)O)=C(CSc3nc(=O)c(=O)[nH]n3C)CS[C@H]12)c1csc(N)n1` [Ceftriaxone], the “antibacterial activity (in words)” value [1] is listed as “strong antibacterial activities”.

With `O=C(Cc1cccs1)N[C@@H]1C(=O)N2C(C(=O)[O-])=C(C[n+]3ccccc3)CS[C@H]12` [Cephaloridine] the “Relative hydrolysis by β-lactamase” value [5] was 100, the “Relative hydrolysis by β-lactamase” value [2] was 100 and the “Relative hydrolysis by β-lactamase” value [3] was 100.

In the case of `CC1=C(C(=O)O)N2C(=O)[C@@H](NC(=O)[C@H](N)C3=CCC=CC3)[C@H]2SC1` [Cephradine], the “Relative hydrolysis by β-lactamase” value [5] is reported as 14.9, the “Relative hydrolysis by β-lactamase” value [2] is reported as 13.6 and the “Relative hydrolysis by β-lactamase” value [3] is reported as 0.8.
